Numbered stars: 1 amine (or outer) side, 2 acyl side, 3 side chain; on linkers, the order of the positions; unused ones are H or OH. Bridge positions count the residues as written; N and C are the ends. Square brackets hold non-standard residues; d marks the D form. Ends that are not written are not given here. Peptide text beside a SMILES is read from it. * marks the point of attachment. X13 = NCCCOCCOCCOCCCNC(=O)CCC(=O)NCCCOCCOCCOCCCNC(=O)CCC(=O)NCCCC[C@H](NC(=O)CCC(=O)NCCCOCCOCCOCCCN*)C(N)=O; X6 = CCOCCOCCOCCOCc1cn(CCCC[C@@H]2CC(=O)C(CC(=O)NCCCOCCOCCOCCCN*)NC2=O)nn1; X4 = CC(C(=O)CN[*:1])[C@@H](C(=O)[*:2])[C@H](C)O; X5 = O=C([C@@H](CC1=CCc2ccccc21)N[*:1])[*:2]; Isobutyryl = CC(C)C(=O)*
How the values were obtained:
[1] = target: T1, DLL3 (Homo sapiens, UniProt Q9NYJ7); assay: Binding of peptides with linkers and/or fluorescent agent to DLL3 (BLI, SPR; Table 6)
T1 construct: The recombinant DLL3 ectodomain (rhDLL3-Fc) was biotinylated; Fc
T1 sequence (Q9NYJ7 27-492 limits assumed): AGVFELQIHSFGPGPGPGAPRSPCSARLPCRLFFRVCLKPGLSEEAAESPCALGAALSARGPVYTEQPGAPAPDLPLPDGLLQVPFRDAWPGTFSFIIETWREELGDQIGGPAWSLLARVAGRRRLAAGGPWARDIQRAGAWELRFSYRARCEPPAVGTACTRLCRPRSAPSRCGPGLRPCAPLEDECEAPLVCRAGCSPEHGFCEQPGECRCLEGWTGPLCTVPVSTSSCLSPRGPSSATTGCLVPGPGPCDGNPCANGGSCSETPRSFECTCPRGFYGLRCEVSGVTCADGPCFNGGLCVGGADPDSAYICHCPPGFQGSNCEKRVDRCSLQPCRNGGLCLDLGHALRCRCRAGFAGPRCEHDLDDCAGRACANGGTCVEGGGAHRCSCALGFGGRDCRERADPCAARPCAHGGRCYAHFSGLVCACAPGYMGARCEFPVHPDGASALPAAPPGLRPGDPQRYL
Protocol: Binding kinetic assays were performed using Bio-layer interferometry (BLI) technology. The recombinant DLL3 ectodomain (rhDLL3-Fc) was biotinylated using EZ-Link Sulfo-NHS-LC-LC-Biotin Kit according to the manufacturer's protocol (Pierce by Thermo Fisher Scientific). The recombinant protein was incubated with an excess of NHS-LC-LC Biotin ester, in a molar ratio of 1:3 (protein: biotin), at 25° C. for 90 min. The un-reacted biotin ester was removed by subsequent buffer exchange on 0.5 ml Zeba spin desalting columns 7K MWCO (Pierce by Thermo Fisher Scientific).
The off-rate screening of the peptides was done using a Biacore T200 instrument (Cytiva, Sweden). […] Peptides were diluted at 300 nM in PBS-P+1× buffer (Cytiva, Sweden) supplemented with 1% DMSO and 0.1% BSA, then injected over the ligand for five minutes at 30 μl/min, finally dissociation allowed for 1 h. Sensorgrams were analyzed by Biacore T200 Evaluation Software 3.0 (Cytiva, Sweden): specific binding was obtained by subtracting unspecific binding to naked biosensors and a zero analyte concentration made of binding assay buffer (double referencing). Kinetic parameters of koff were measured using a global fitting according to 1:1 Langmuir binding isotherm equation.

[2] = target: T2, native huDLL3 on the surface of cells (CHO cells) (Homo sapiens, UniProt Q9NYJ7); assay: Flow cytometry competition with AF647-labelled peptide; format: cell-based; conditions: for efficiency in competing the binding of the AF647-labelled PepSP1146: compared with monomer PepSP1146
T2 construct: expressed in transfected cells; host or cells: CHO (CHO-huDLL3)
T2 sequence (Q9NYJ7 27-618): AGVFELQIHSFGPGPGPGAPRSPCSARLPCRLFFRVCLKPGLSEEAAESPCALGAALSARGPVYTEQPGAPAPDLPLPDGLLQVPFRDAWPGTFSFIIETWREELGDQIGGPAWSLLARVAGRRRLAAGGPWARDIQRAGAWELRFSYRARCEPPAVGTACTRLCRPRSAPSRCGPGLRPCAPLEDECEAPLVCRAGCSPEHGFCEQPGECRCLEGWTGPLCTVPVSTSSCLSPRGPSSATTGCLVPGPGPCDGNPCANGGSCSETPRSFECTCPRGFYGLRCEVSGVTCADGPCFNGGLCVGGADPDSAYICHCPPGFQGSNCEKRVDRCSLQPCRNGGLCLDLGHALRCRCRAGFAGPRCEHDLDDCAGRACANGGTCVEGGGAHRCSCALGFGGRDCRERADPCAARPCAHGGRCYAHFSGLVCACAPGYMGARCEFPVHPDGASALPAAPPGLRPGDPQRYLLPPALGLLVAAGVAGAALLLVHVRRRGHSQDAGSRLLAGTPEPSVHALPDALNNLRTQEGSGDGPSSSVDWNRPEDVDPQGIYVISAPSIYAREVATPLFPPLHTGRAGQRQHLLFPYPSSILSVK
Protocol: HEK293-huDLL3, CHO-huDLL3 and the corresponding parental cell lines were detached with EDTA 2.5 mM and re-suspended at 1.8×10^6 cells/ml in FACS buffer (1×PBS, 2% FBS), distributed at 500 μl per testing tube and pelleted 5 min at 1300 rpm in a Heraeus Multifuge […] centrifuge.

[3] = target: T3, rhDLL3-Fc (Homo sapiens, UniProt Q9NYJ7); assay: SPR binding / off-rate screening (Biacore T200); conditions: Table 7, curve fitting of SPR sensorgrams; for koff: read-out: koff; for kon: read-out: kon
T3 construct: The recombinant DLL3 ectodomain (rhDLL3-Fc) was biotinylated; Fc
T3 sequence (Q9NYJ7 27-492 limits assumed): T1 sequence (Q9NYJ7 27-492 limits assumed)
Protocol: […] The recombinant DLL3 ectodomain (rhDLL3-Fc) was biotinylated using EZ-Link Sulfo-NHS-LC-LC-Biotin Kit according to the manufacturer's protocol (Pierce by Thermo Fisher Scientific). The recombinant protein was incubated with an excess of NHS-LC-LC Biotin ester, in a molar ratio of 1:3 (protein: biotin), at 25° C. for 90 min. The un-reacted biotin ester was removed by subsequent buffer exchange on 0.5 ml Zeba spin desalting columns 7K MWCO (Pierce by Thermo Fisher Scientific).
The off-rate screening of the peptides was done using a Biacore T200 instrument (Cytiva, Sweden). […] Sensorgrams were analyzed by Biacore T200 Evaluation Software 3.0 (Cytiva, Sweden): specific binding was obtained by subtracting unspecific binding to naked biosensors and a zero analyte concentration made of binding assay buffer (double referencing). […]

[4] = target: T4, recombinant DLL3 ectodomain (rhDLL3-Fc) (Homo sapiens, UniProt Q9NYJ7); assay: Binding kinetic assay using Bio-layer interferometry (BLI)
T4 construct: The recombinant DLL3 ectodomain (rhDLL3-Fc) was biotinylated; Fc
T4 sequence (Q9NYJ7 27-492 limits assumed): T1 sequence (Q9NYJ7 27-492 limits assumed)

Compound	Kd [1] [nM]	RT [1]	efficiency in competing the binding of the AF647-labelled PepSP1146 [2]	IC50 [2] [nM]	Kd [3] [nM]	koff [3] [s⁻¹]	kon [3] [M⁻¹ s⁻¹]	binding mode to DLL3 ([4]; peptides at 20, 4 and 0.8 μM, fit to 1:1 Langmuir binding model)	affinity ([4]; wider dose-response 10×KD to 0.1×KD)
CC(=O)N[C@@H](C)C(=O)N[C@@H](CCC(=O)O)C(=O)N[C@H](C(=O)N[C@H](C(=O)N[C@@H](CCC(=O)O)C(=O)N[C@@H](Cc1ccccc1)C(=O)N[C@@H](Cc1c[nH]c2ccccc12)C(=O)N[C@@H](Cc1c[nH]c2ccccc12)C(=O)N[C@H]1CSSC[C@@H](C(=O)N[C@H](C(=O)N[C@@H](Cc2c[nH]c3ccccc23)C(=O)NCC(=O)NCC(=O)NCCCOCCOCCOCCCNC(=O)CCC(=O)N[C@@H](CCCCNC(=O)CCC(=O)NCCCOCCOCCOCCCNC(=O)CCC(=O)NCCCOCCOCCOCCCN)C(N)=O)[C@@H](C)O)NC(=O)[C@H]([C@@H](C)O)NC(=O)[C@H](Cc2c[nH]c3ccccc23)NC(=O)[C@H](CC(N)=O)NC(=O)[C@H](CCC(=O)O)NC(=O)[C@H](CO)NC(=O)[C@H](CC(N)=O)NC(=O)CNC(=O)[C@H](CC(N)=O)NC1=O)C(C)C)[C@@H](C)O [PepSP1342] (Ac-AETVEFWWCNGNSENWTCTWGG-X13; disulfide 9-18 (inferred))	42 ± 8	198.9 ± 41.1							
AETVEFWSCVVYGDNWTCSS-CONH2 (AETVEFWSCVVYGDNWTCSS-NH2; disulfide 9-18 (inferred)) [PepSP1172]			most efficient binder						
CC(C)[C@H](NC(=O)[C@@H](NC(=O)[C@H](CCC(=O)O)NC(=O)[C@H](C)N)[C@@H](C)O)C(=O)N[C@@H](CCC(=O)O)C(=O)N[C@@H](Cc1ccccc1)C(=O)N[C@@H](Cc1c[nH]c2ccccc12)C(=O)NCC(=O)N[C@H]1CSSC[C@@H](C(=O)N[C@@H](Cc2c[nH]c3ccccc23)C(=O)N[C@@H](Cc2c[nH]c3ccccc23)C(=O)NCCCOCCOCCOCCCNC(=O)CCC(=O)N[C@@H](CCCCn2cc(COCCOCCOCCOCCOCCOCc3cn(CCCC[C@H](NC(=O)CCC(=O)NCCCOCCOCCOCCCNC(=O)[C@H](Cc4c[nH]c5ccccc45)NC(=O)[C@H](Cc4c[nH]c5ccccc45)NC(=O)[C@@H]4CSSC[C@H](NC(=O)CNC(=O)[C@H](Cc5c[nH]c6ccccc56)NC(=O)[C@H](Cc5ccccc5)NC(=O)[C@H](CCC(=O)O)NC(=O)[C@@H](NC(=O)[C@@H](NC(=O)[C@H](CCC(=O)O)NC(=O)[C@H](C)N)[C@@H](C)O)C(C)C)C(=O)N[C@@H]([C@@H](C)O)C(=O)NCC(=O)N[C@@H]([C@@H](C)O)C(=O)N[C@@H](Cc5c[nH]c6ccccc56)C(=O)NCC(=O)N[C@@H](CC(N)=O)C(=O)N[C@@H](CCC(=O)O)C(=O)N[C@@H]([C@@H](C)O)C(=O)N4)C(N)=O)nn3)nn2)C(N)=O)NC(=O)[C@H]([C@@H](C)O)NC(=O)[C@H](CCC(=O)O)NC(=O)[C@H](CC(N)=O)NC(=O)CNC(=O)[C@H](Cc2c[nH]c3ccccc23)NC(=O)[C@H]([C@@H](C)O)NC(=O)CNC(=O)[C@H]([C@@H](C)O)NC1=O [PepSP1270]			higher efficiency	15.3	3	0.00024	74300		
CC(C)[C@H](NC(=O)[C@@H](NC(=O)[C@H](CCC(=O)O)NC(=O)[C@H](C)N)[C@@H](C)O)C(=O)N[C@@H](CCC(=O)O)C(=O)N[C@@H](Cc1ccccc1)C(=O)N[C@@H](Cc1c[nH]c2ccccc12)C(=O)NCC(=O)N[C@H]1CSSC[C@@H](C(=O)N[C@@H](Cc2c[nH]c3ccccc23)C(=O)N[C@@H](Cc2c[nH]c3ccccc23)C(=O)NCCCOCCOCCOCCCNC(=O)CCC(=O)N[C@@H](CCCCn2cc(COCCOCCOCCOCCOCCOCCOCCOCCOCCOCCOCCOCCOCCOCc3cn(CCCC[C@H](NC(=O)CCC(=O)NCCCOCCOCCOCCCNC(=O)[C@H](Cc4c[nH]c5ccccc45)NC(=O)[C@H](Cc4c[nH]c5ccccc45)NC(=O)[C@@H]4CSSC[C@H](NC(=O)CNC(=O)[C@H](Cc5c[nH]c6ccccc56)NC(=O)[C@H](Cc5ccccc5)NC(=O)[C@H](CCC(=O)O)NC(=O)[C@@H](NC(=O)[C@@H](NC(=O)[C@H](CCC(=O)O)NC(=O)[C@H](C)N)[C@@H](C)O)C(C)C)C(=O)N[C@@H]([C@@H](C)O)C(=O)NCC(=O)N[C@@H]([C@@H](C)O)C(=O)N[C@@H](Cc5c[nH]c6ccccc56)C(=O)NCC(=O)N[C@@H](CC(N)=O)C(=O)N[C@@H](CCC(=O)O)C(=O)N[C@@H]([C@@H](C)O)C(=O)N4)C(N)=O)nn3)nn2)C(N)=O)NC(=O)[C@H]([C@@H](C)O)NC(=O)[C@H](CCC(=O)O)NC(=O)[C@H](CC(N)=O)NC(=O)CNC(=O)[C@H](Cc2c[nH]c3ccccc23)NC(=O)[C@H]([C@@H](C)O)NC(=O)CNC(=O)[C@H]([C@@H](C)O)NC1=O [PepSP1271]			higher efficiency	10	3	0.00028	104000		
CC(C)[C@H](NC(=O)[C@@H](NC(=O)[C@H](CCC(=O)O)NC(=O)[C@H](C)N)[C@@H](C)O)C(=O)N[C@@H](CCC(=O)O)C(=O)N[C@@H](Cc1ccccc1)C(=O)N[C@@H](Cc1c[nH]c2ccccc12)C(=O)NCC(=O)N[C@H]1CSSC[C@@H](C(=O)N[C@@H](Cc2c[nH]c3ccccc23)C(=O)N[C@@H](Cc2c[nH]c3ccccc23)C(N)=O)NC(=O)[C@H]([C@@H](C)O)NC(=O)[C@H](CCC(=O)O)NC(=O)[C@H](CC(N)=O)NC(=O)CNC(=O)[C@H](Cc2c[nH]c3ccccc23)NC(=O)[C@H]([C@@H](C)O)NC(=O)CNC(=O)[C@H]([C@@H](C)O)NC1=O [PepSP1146]				76				dose-response saturable binding	double-digit nM range
CCOCCOCCOCCOCc1cn(CCCC[C@@H]2CC(=O)C(CC(=O)NCCCOCCOCCOCCCNC(=O)[C@@H](Cc3c[nH]c4ccccc34)NC(=O)[C@@H](CC3=CCc4ccccc43)NC(=O)[C@H]3CSSC[C@@H](NC(=O)CNC(=O)[C@@H](Cc4c[nH]c5ccccc45)NC(=O)[C@@H](Cc4ccccc4)NC(=O)[C@@H](CCC(=O)O)NC(=O)[C@H](NC(=O)[C@H](NC(=O)[C@@H](CCC(=O)O)NC(=O)C(C)C)[C@H](C)O)C(C)C)C(=O)N[C@H]([C@H](C)O)C(=O)NCC(=O)C(C)[C@H]([C@H](C)O)C(=O)N[C@H](Cc4c[nH]c5ccccc45)C(=O)NCC(=O)N[C@H](CC(N)=O)C(=O)N[C@H](CCC(=O)O)C(=O)N[C@H]([C@H](C)O)C(=O)N3)NC2=O)nn1 (stereo partly shown) [PepSP1272] (Isobutyryl-[dE][dT][dV][dE][dF][dW]G[dC][dT][X4][dW]G[dN][dE][dT][dC][X5][dW]-X6; disulfide 8-16)			higher efficiency			5.5e-05	90000		

Reference: patent US20250074943A1, “DLL3 BINDING PEPTIDES AND USES THEREOF” (AMGEN INC., priority 2021, published 2025)
